Source: a melting point compilation (Tetko et al.)

Row | melting point [°C] | Structure (SMILES)
1 | 36.5 to 39 | CC(=O)c1ccnc(Cl)c1
2 | 88 | O=C(O)C1(C(F)(F)F)CC1
3 | 97.5 | CCOC(=O)c1coc(Cl)n1
4 | 59 | O=C(Cc1ccccc1)SSC(=O)Cc1ccccc1
5 | 158 | CC12CCC(CC1)C2(C)C
6 | 251 | COc1cc(C=Cc2cc(/C=C/c3ccc(O)c(OC)c3)c([N+](=O)[O-])cc2[N+](=O)[O-])ccc1O
7 | 32 | N#Cc1ccnc(F)c1
8 | 207 to 208 | O=C(COc1ccccc1)c1ccc(O)cc1O
9 | 300 | CC(C)(C)[C@@H]1NC(=O)CNC1=O
10 | 360 to 362 | O=c1c2ccccc2[nH]c2ccccc12
11 | 32 | C#CC(O)COc1cccc(C(F)(F)F)c1 (stereo not drawn)
12 | 182 to 184 | Brc1ccccc1-c1nnn[nH]1
13 | -78 | CCOC(=O)C(F)(F)F
14 | 132 | O=C1c2ccccc2C(=O)N1CCNCCN1C(=O)c2ccccc2C1=O
15 | 66 | O=C1CCCN1c1ccccc1
16 | 278 to 282 | Cc1c(C)c(C)c(C(=O)c2ccccc2C(=O)O)c(C)c1C
17 | 147 | N#Cc1ccc(O)c(F)c1F
18 | 130 | Cc1nc2ccccc2n1CCc1nnc(SCc2ccccc2)n1-c1ccccc1
19 | 83 to 85 | O=C(Nc1cccnc1Cl)c1cccc(C(F)(F)F)c1
20 | 210 | CC(C)(C)C1=NNC(=O)C1
21 | -83 | CSC
22 | 156 to 160 | CC(=O)Nc1cccc2ccccc12
23 | 122 to 124 | Cn1ccc(-c2ccc(C(=O)Oc3c(F)c(F)c(F)c(F)c3F)cc2)n1

Row | melting point [°C] | Structure (SMILES)
24 | -55.4 | CCCC(CC)c1ccccc1 (stereo not drawn)
25 | 254 | O=C1NN=C(C(F)(F)F)C1=NNc1cccc([N+](=O)[O-])c1
26 | 72 to 73 | CN1C(=O)CSC1=S
27 | -5 | CC1COCc2cc3c(cc21)C(C)(C)C(C)C3(C)C (stereo not drawn)
28 | 76 to 78 | O=C(C=Cc1ccccc1)c1cccs1
29 | 2.5 to 3.5 | Cc1c(C)c2c(c(C)c1O)CCC(C)(CCCC(C)CCCC(C)CCCC(C)C)O2 (stereo not drawn)
30 | 48 to 50 | CCCc1ccc(C(C)=NO)cc1
31 | 154 to 156 | Brc1ccc(-c2csnn2)cc1
32 | 77.5 | CCC(C(=O)OC)c1ccccc1 (stereo not drawn)
33 | 145 to 148 | CCOC(=O)c1c[nH]nc1C(F)(F)F
34 | 83 | Nc1ccc(Cl)nc1
35 | 206 | c1ccc2cc3c4ccccc4c4ccccc4c3cc2c1
36 | 82 to 85 | O=C(O)C(F)c1ccccc1 (stereo not drawn)
37 | 127 to 128 | Cc1cc(-c2ccccc2)n[nH]1
38 | 235 to 237 | O=C(Nc1ccc(I)cc1)C(C(F)(F)F)C(F)(F)F
39 | 123 to 125 | O=C(NCNN(CNC(=O)c1ccccc1)CNC(=O)c1ccccc1)c1ccccc1
40 | 83 to 85 | O=C(CBr)c1ccc(Cl)c([N+](=O)[O-])c1
41 | 178 | Cc1cnc(C(=O)O)c[n+]1[O-]
42 | 8.9 | CN(C)c1ccccc1N(C)C
43 | 162 to 163 | Cc1n[nH]c2c1c(=O)n(-c1ccccc1)c1ccccc21
44 | 143 | c1cnc2nccnc2c1
45 | 211 | NCCCCCC(=O)O

Row | Structure (SMILES) | melting point [°C]
46 | Oc1ccccc1-c1ccccc1O | 109
47 | N#CC1C(=N)Oc2c(c(=O)oc3ccccc23)C1c1ccc(Br)cc1 (stereo not drawn) | 254
48 | CC12CCC3C(CCC4CC=CCC43C)C1CCC2=O (stereo not drawn) | 104
49 | NNC(N)=O | 96
50 | CCCCC(C#N)(Cn1cncn1)c1ccc(Cl)cc1 (stereo not drawn) | 70.9
51 | O=C=Nc1cccc(Cl)c1 | -4
52 | Cc1ccc(CC#N)cc1 | 18
53 | CC12CCC(=O)C=C1CCC1C2CCC2(C)C(OC(=O)CCC3CCCC3)CCC12 (stereo not drawn) | 155
